Legend:
[1] = target: T1, Beta-secretase 1 (Homo sapiens, UniProt P56817); test: Inhibition of recombinant human BACE1 using (7-methoxycoumarin-4-yl)acetyl-SEVNL*DAEFRK(2,4-dinitrophenyl)-RR-NH2) as substrate at 0.2 uM by FRET assay
[2] = target: T1, Beta-secretase 1; test: Inhibition of recombinant human BACE1 using (7-methoxycoumarin-4-yl)acetyl-SEVNL*DAEFRK(2,4-dinitrophenyl)-RR-NH2) as substrate at 2 uM by FRET assay
[3] = target: T1, Beta-secretase 1; test: Inhibition of recombinant human BACE1 using (7-methoxycoumarin-4-yl)acetyl-SEVNL*DAEFRK(2,4-dinitrophenyl)-RR-NH2) as substrate by FRET assay

T1 sequence (P56817 whole entry): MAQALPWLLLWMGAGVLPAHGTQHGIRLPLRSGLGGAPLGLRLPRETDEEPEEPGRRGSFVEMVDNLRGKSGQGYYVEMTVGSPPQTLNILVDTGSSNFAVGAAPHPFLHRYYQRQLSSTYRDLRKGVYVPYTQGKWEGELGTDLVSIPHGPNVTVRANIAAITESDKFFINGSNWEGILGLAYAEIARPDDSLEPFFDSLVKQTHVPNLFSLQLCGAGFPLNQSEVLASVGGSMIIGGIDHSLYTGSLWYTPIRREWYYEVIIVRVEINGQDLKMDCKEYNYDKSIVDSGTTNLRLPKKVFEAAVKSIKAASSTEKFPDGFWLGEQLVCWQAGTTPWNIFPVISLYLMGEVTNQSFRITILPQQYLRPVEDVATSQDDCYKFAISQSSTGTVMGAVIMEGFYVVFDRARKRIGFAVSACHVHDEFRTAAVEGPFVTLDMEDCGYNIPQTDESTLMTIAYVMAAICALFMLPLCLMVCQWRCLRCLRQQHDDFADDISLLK

What does the source list for `Nc1cc(C(=O)N[C@@H](Cc2ccccc2)[C@H](O)C(=O)Nc2cccc(-c3nn[nH]n3)c2)nc(C(=O)N2COC[C@@H]2c2ccccc2)c1`?
inhibition [1]: 53%; inhibition [2]: 78%

For `O=C(N[C@@H](CO)c1ccccc1)c1cc(=O)cc(C(=O)N[C@@H](Cc2ccccc2)[C@H](O)C(=O)Nc2cccc(-c3nn[nH]n3)c2)o1`, which inhibition [2] is on record?
Its inhibition is 11%.

With `CN(Cc1ccccc1)C(=O)c1cc(=O)cc(C(=O)N[C@@H](Cc2ccccc2)[C@H](O)C(=O)Nc2cccc(-c3nn[nH]n3)c2)o1` as the compound, how does the inhibition [2] read?
Its inhibition is 67%.

With `COc1cc(C(=O)N[C@@H](Cc2ccccc2)[C@H](O)C(=O)Nc2cccc(-c3nn[nH]n3)c2)nc(C(=O)N[C@H](C)c2ccccc2)c1` as the compound, how does the inhibition [2] read?
The inhibition was 73%.

`COc1cc(C(=O)N[C@@H](Cc2ccccc2)[C@H](O)C(=O)Nc2cccc(-c3nn[nH]n3)c2)nc(C(=O)NC(C)(C)c2ccccc2)c1` was tested. Which inhibition [2] did it give?
The inhibition was 74%.

How did the inhibition [2] turn out when `C[C@H](NC(=O)c1cc(=O)cc(C(=O)N[C@@H](Cc2ccccc2)[C@H](O)C(=O)Nc2cccc(-c3nn[nH]n3)c2)o1)c1ccccc1` was run?
Its inhibition is 25%.

With `CSc1cc(C(=O)N[C@@H](Cc2ccccc2)[C@H](O)C(=O)Nc2cccc(-c3nn[nH]n3)c2)nc(C(=O)N[C@H](C)c2ccccc2)c1` as the compound, how does the inhibition [2] read?
Its inhibition is 82%.

With `C[C@@H](NC(=O)c1cc(=O)cc(C(=O)N[C@@H](Cc2ccccc2)[C@H](O)C(=O)Nc2cccc(-c3nn[nH]n3)c2)o1)c1ccc(F)cc1` as the compound, how does the inhibition [2] read?
The inhibition was 76%.

For `COc1cc(C(=O)N[C@@H](Cc2ccccc2)[C@H](O)C(=O)Nc2cccc(-c3nn[nH]n3)c2)nc(C(=O)N2COC[C@@H]2c2ccccc2)c1`, which IC50 [3] is on record?
Its IC50 is 151 nM.

And the inhibition [1]?
Its inhibition is 53%.

And the inhibition [2]?
Its inhibition is 91%.

Which results are given for `CSc1cc(C(=O)N[C@@H](Cc2ccccc2)[C@H](O)C(=O)Nc2cccc(-c3nn[nH]n3)c2)nc(C(=O)N2COC[C@@H]2c2ccccc2)c1`?
IC50 [3]: 89 nM; inhibition [1]: 66%; inhibition [2]: 95%

How did the inhibition [2] turn out when `CC(C)Sc1cc(C(=O)N[C@@H](Cc2ccccc2)[C@H](O)C(=O)Nc2cccc(-c3nn[nH]n3)c2)nc(C(=O)N2COC[C@@H]2c2ccccc2)c1` was run?
Its inhibition is 72%.

Which inhibition [2] does the source give for `CCOc1cc(C(=O)N[C@@H](Cc2ccccc2)[C@H](O)C(=O)Nc2cccc(-c3nn[nH]n3)c2)nc(C(=O)NC(C)(C)c2ccccc2)c1` here?
The inhibition was 42%.

With `CN(NC(=O)c1cc(=O)cc(C(=O)N[C@@H](Cc2ccccc2)[C@H](O)C(=O)Nc2cccc(-c3nn[nH]n3)c2)o1)c1ccccc1` as the compound, how does the inhibition [2] read?
The inhibition was 21%.

With `C[C@@H](NC(=O)c1cc(=O)cc(C(=O)N[C@@H](Cc2ccccc2)[C@H](O)C(=O)Nc2cccc(-c3nn[nH]n3)c2)o1)c1cccc(F)c1` as the compound, how does the inhibition [2] read?
The inhibition was 62%.

For `CSc1cc(C(=O)N[C@@H](Cc2ccccc2)[C@H](O)C(=O)Nc2cccc(-c3nn[nH]n3)c2)nc(C(=O)NC(C)(C)c2ccccc2)c1`, which inhibition [2] is on record?
Its inhibition is 85%.

For `Cc1cc(C(=O)N[C@@H](Cc2ccccc2)[C@H](O)C(=O)Nc2cccc(-c3nn[nH]n3)c2)nc(C(=O)N2COC[C@@H]2c2ccccc2)c1`, which inhibition [1] is on record?
The inhibition was 68%.

And the inhibition [2]?
The inhibition was 95%.

How did the inhibition [2] turn out when `CCOc1cc(C(=O)N[C@@H](Cc2ccccc2)[C@H](O)C(=O)Nc2cccc(-c3nn[nH]n3)c2)nc(C(=O)N2COC[C@@H]2c2ccccc2)c1` was run?
Its inhibition is 79%.

With `Cc1ccc([C@@H](C)NC(=O)c2cc(=O)cc(C(=O)N[C@@H](Cc3ccccc3)[C@H](O)C(=O)Nc3cccc(-c4nn[nH]n4)c3)o2)cc1` as the compound, how does the inhibition [2] read?
Its inhibition is 54%.

With `C[C@@H](NC(=O)c1cc(=O)cc(C(=O)N[C@@H](Cc2ccccc2)[C@H](O)C(=O)Nc2cccc(-c3nn[nH]n3)c2)o1)C1CCCCC1` as the compound, how does the inhibition [2] read?
The inhibition was 26%.

`CCCOc1cc(C(=O)N[C@@H](Cc2ccccc2)[C@H](O)C(=O)Nc2cccc(-c3nn[nH]n3)c2)nc(C(=O)N2COC[C@@H]2c2ccccc2)c1` was tested. Which inhibition [2] did it give?
Its inhibition is 64%.

With `COc1cccc([C@@H](C)NC(=O)c2cc(=O)cc(C(=O)N[C@@H](Cc3ccccc3)[C@H](O)C(=O)Nc3cccc(-c4nn[nH]n4)c3)o2)c1` as the compound, how does the inhibition [2] read?
The inhibition was 48%.

`CC[C@@H](NC(=O)c1cc(=O)cc(C(=O)N[C@@H](Cc2ccccc2)[C@H](O)C(=O)Nc2cccc(-c3nn[nH]n3)c2)o1)c1ccccc1` was tested. Which inhibition [2] did it give?
The inhibition was 32%.

`CCCN(CCC)C(=O)c1cc(=O)cc(C(=O)N[C@@H](Cc2ccccc2)[C@@H](O)C(=O)Nc2cccc(-c3noc(=O)[nH]3)c2)o1` was tested. Which inhibition [2] did it give?
The inhibition was 23%.

For `CN(c1cc(C(=O)N[C@@H](Cc2ccccc2)[C@H](O)C(=O)Nc2cccc(-c3nn[nH]n3)c2)nc(C(=O)N2COC[C@@H]2c2ccccc2)c1)S(C)(=O)=O`, which inhibition [2] is on record?
The inhibition was 75%.

Which inhibition [2] does the source give for `C[C@@H](NC(=O)c1cc(=O)cc(C(=O)N[C@@H](Cc2ccccc2)[C@H](O)C(=O)Nc2cccc(-c3nn[nH]n3)c2)o1)c1ccc(Cl)cc1` here?
Its inhibition is 61%.

For `C[C@@H](NC(=O)c1cc(OS(=O)(=O)Cc2ccccc2)cc(C(=O)N[C@@H](Cc2ccccc2)[C@H](O)C(=O)Nc2cccc(-c3nn[nH]n3)c2)n1)c1ccccc1`, which inhibition [2] is on record?
The inhibition was 29%.

For `[N-]=[N+]=Nc1cc(C(=O)N[C@@H](Cc2ccccc2)[C@H](O)C(=O)Nc2cccc(-c3nn[nH]n3)c2)nc(C(=O)N2COC[C@@H]2c2ccccc2)c1`, which IC50 [3] is on record?
Its IC50 is 79 nM.

And the inhibition [1]?
Its inhibition is 68%.

And the inhibition [2]?
The inhibition was 95%.

With `O=C(NCc1ccccc1)c1cc(=O)cc(C(=O)N[C@@H](Cc2ccccc2)[C@H](O)C(=O)Nc2cccc(-c3nn[nH]n3)c2)o1` as the compound, how does the inhibition [2] read?
The inhibition was 25%.

With `C[C@@H](NC(=O)c1cc(=O)cc(C(=O)N[C@@H](Cc2ccccc2)[C@H](O)C(=O)Nc2cccc(-c3nn[nH]n3)c2)o1)c1ccc([N+](=O)[O-])cc1` as the compound, how does the inhibition [2] read?
Its inhibition is 51%.

How did the inhibition [2] turn out when `CCCN(CCC)C(=O)c1cc(=O)cc(C(=O)N[C@@H](Cc2ccccc2)[C@@H](O)C(=O)Nc2cccc(-c3nnn[nH]3)c2)o1` was run?
The inhibition was 60%.

`CCCN(CCC)C(=O)c1cc(=O)cc(C(=O)N[C@@H](Cc2ccccc2)[C@@H](O)C(=O)Nc2cccc(C(=O)O)c2)o1` was tested. Which inhibition [2] did it give?
Its inhibition is 10%.

`CCOc1cc(C(=O)N[C@@H](Cc2ccccc2)[C@H](O)C(=O)Nc2cccc(-c3nn[nH]n3)c2)nc(C(=O)N[C@H](C)c2ccccc2)c1` was tested. Which inhibition [2] did it give?
Its inhibition is 46%.

For `O=C(N[C@@H](Cc1ccccc1)[C@H](O)C(=O)Nc1cccc(-c2nn[nH]n2)c1)c1cc(=O)cc(C(=O)N(Cc2ccccc2)Cc2ccccc2)o1`, which inhibition [2] is on record?
The inhibition was 29%.

For `O=C(NC(c1ccccc1)c1ccccc1)c1cc(=O)cc(C(=O)N[C@@H](Cc2ccccc2)[C@H](O)C(=O)Nc2cccc(-c3nn[nH]n3)c2)o1`, which inhibition [2] is on record?
The inhibition was 13%.

With `CCCN(CCC)C(=O)c1cc(=O)cc(C(=O)N[C@@H](Cc2ccccc2)[C@H](O)C(=O)Nc2cccc(-c3nnn[nH]3)c2)o1` as the compound, how does the inhibition [2] read?
The inhibition was 6%.

`COc1ccc([C@@H](C)NC(=O)c2cc(=O)cc(C(=O)N[C@@H](Cc3ccccc3)[C@H](O)C(=O)Nc3cccc(-c4nn[nH]n4)c3)o2)cc1` was tested. Which inhibition [2] did it give?
The inhibition was 70%.

— ChEMBL document CHEMBL3102758, “Structure-activity relationship study of BACE1 inhibitors possessing a chelidonic or 2,6-pyridinedicarboxylic scaffold at the P(2) position” (Bioorg Med Chem Lett, 2014)
